From US9926281B2 (priority 2014, dated 2018)
pIC50: −log10 of the molar value.

Columns and labels:
[1] = target: human ADAMTS-5 (Homo sapiens (Human), UniProt Q9UNA0); settings: read-out: hADAMTS-5 potency IC50
Procedure: Finally, the fluorescence is read on the Envision (Perkin Elmer) after an incubation of 90 min at 37° C.

[2] = target: human TACE (Homo sapiens (Human), UniProt P78536); settings: read-out: TACE potency IC50
human TACE, sequence (P78536 whole entry, looked up, change not shown): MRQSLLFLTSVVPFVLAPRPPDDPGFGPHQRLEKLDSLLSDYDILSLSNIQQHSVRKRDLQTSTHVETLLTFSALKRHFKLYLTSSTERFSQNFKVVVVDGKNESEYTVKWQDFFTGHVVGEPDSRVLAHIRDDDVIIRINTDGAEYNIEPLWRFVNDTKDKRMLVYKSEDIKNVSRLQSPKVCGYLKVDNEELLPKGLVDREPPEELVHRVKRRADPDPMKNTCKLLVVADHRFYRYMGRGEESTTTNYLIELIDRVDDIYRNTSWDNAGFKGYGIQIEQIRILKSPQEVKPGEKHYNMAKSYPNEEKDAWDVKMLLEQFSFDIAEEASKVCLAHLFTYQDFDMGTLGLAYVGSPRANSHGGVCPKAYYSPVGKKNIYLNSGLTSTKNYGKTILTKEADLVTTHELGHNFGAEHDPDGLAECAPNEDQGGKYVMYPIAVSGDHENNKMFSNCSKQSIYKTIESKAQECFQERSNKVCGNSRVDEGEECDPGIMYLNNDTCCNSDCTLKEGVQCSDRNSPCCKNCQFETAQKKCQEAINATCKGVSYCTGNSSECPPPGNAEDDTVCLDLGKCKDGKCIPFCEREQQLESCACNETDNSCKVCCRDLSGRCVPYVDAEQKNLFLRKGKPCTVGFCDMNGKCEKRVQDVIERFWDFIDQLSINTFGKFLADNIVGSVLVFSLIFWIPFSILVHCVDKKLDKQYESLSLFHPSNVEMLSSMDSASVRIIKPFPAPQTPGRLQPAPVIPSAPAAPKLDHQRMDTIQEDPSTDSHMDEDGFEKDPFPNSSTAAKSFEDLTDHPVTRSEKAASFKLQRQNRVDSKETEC

human ADAMTS-5, sequence (Q9UNA0 262-930): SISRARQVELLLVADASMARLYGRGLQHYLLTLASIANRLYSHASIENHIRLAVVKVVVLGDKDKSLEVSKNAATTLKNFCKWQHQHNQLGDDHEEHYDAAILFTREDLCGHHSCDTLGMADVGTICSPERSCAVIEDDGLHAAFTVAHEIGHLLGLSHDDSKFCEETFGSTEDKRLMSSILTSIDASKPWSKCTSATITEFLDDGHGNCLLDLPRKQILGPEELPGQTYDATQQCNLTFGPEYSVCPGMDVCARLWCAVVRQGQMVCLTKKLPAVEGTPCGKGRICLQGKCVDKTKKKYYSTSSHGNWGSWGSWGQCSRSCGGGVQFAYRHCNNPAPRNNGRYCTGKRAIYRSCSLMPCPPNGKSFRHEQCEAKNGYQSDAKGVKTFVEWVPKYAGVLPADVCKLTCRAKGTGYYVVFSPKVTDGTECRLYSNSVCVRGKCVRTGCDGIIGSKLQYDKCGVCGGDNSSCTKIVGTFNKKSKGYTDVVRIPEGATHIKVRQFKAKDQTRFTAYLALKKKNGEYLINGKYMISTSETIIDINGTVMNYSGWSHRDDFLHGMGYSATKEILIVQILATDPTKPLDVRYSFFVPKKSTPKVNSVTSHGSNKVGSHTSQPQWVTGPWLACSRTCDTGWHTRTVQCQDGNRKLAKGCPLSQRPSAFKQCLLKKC

SMILES	pIC50 [1]	pIC50 [2]
Cc1cc(N2CCN(C(=O)CCC3(C4CC4)NC(=O)NC3=O)C[C@@H]2C)ccc1F (stereo partly drawn) [compound 298, 5-cyclopropyl-5-[3-[(3S)-4-(4-fluoro-3-methyl-phenyl)-3-methyl-piperazin-1-yl]-3-oxo-propyl]imidazolidine-2,4-dione]	6.72	< 4.70
C[C@H]1CN(C(=O)CCC2(C3CC3)NC(=O)NC2=O)CCN1c1cc(Cl)nc(Cl)c1 (stereo partly drawn) [compound 258, 5-cyclopropyl-5-[3-[(3S)-4-(2,6-dichloro-4-pyridyl)-3-methyl-piperazin-1-yl]-3-oxo-propyl]imidazolidine-2,4-dione]	5.82	< 4.70
C[C@H]1CN(C(=O)CCC2(C3CC3)NC(=O)NC2=O)CCN1c1cc(Cl)ccn1 (stereo partly drawn) [compound 325, 5-[3-[(3S)-4-(4-chloro-2-pyridyl)-3-methyl-piperazin-1-yl]-3-oxo-propyl]-5-cyclopropyl-imidazolidine-2,4-dione]	6.10	< 4.70
C[C@H]1CN(C(=O)CCC2(c3cn(C)cn3)NC(=O)NC2=O)CCN1c1ccc(F)c(Cl)c1 (stereo partly drawn) [compound 467, 5-[3-[(3S)-4-(3-chloro-4-fluoro-phenyl)-3-methyl-piperazin-1-yl]-3-oxo-propyl]-5-(1-methylimidazol-4-yl)imidazolidine-2,4-dione]	7.38	< 5.40
CC(CC1(c2ccccn2)NC(=O)NC1=O)C(=O)N1CCN(c2cccc(Cl)c2)[C@@H](C)C1 (stereo partly drawn) [compound 269, 5-[3-[(3S)-4-(3-chlorophenyl)-3-methyl-piperazin-1-yl]-2-methyl-3-oxo-propyl]-5-(2-pyridyl)imidazolidine-2,4-dione]	7.72	6.08
Cc1cc(C2(CCC(=O)N3CCN(c4cc(F)cc(F)c4)[C@@H](C)C3)NC(=O)NC2=O)no1 (stereo partly drawn) [compound 387, 5-[3-[(3S)-4-(3,5-difluorophenyl)-3-methyl-piperazin-1-yl]-3-oxo-propyl]-5-(5-methylisoxazol-3-yl)imidazolidine-2,4-dione]	7.43	< 5.40
CNc1cc(N2CCN(C(=O)CC[C@@]3(C)NC(=O)NC3=O)C[C@@H]2C)ccc1Cl [compound 392, (5R)-5-[3-[(3S)-4-[4-chloro-3-(methylamino)phenyl]-3-methyl-piperazin-1-yl]-3-oxo-propyl]-5-methyl-imidazolidine-2,4-dione]	6.25	< 4.70
C[C@H]1CN(C(=O)CCC2(C3CC3)NC(=O)NC2=O)CCN1c1cccc(-c2cnccn2)c1 (stereo partly drawn) [Cpd 372, S-Cyclopropyl-5-{3-[(S)-3-methyl-4-(3-pyrazin-2-yl-phenyl)-piperazin-1-yl]-3-oxo-propyl}-imidazolidine-2,4-dione]	5.62	< 4.70
C[C@H]1CN(C(=O)CCC2(C3CC3)NC(=O)NC2=O)CCN1c1cc(F)cc(C#N)c1 (stereo partly drawn) [compound 334, 3-[(2S)-4-[3-(4-cyclopropyl-2,5-dioxo-imidazolidin-4-yl)propanoyl]-2-methyl-piperazin-1-yl]-5-fluoro-benzonitrile]	6.37	< 4.70
CC(CC1(c2ccccn2)NC(=O)NC1=O)C(=O)N1CCN(c2cccc(F)c2)[C@@H](C)C1 (stereo partly drawn) [compound 263, 5-[3-[(3S)-4-(3-fluorophenyl)-3-methyl-piperazin-1-yl]-2-methyl-3-oxo-propyl]-5-(2-pyridyl)imidazolidine-2,4-dione]	7.72	5.58
CC(=O)N1CC(C2(CC(C)C(=O)N3CCN(c4ccc(F)c(F)c4)CC3)NC(=O)NC2=O)C1 (stereo not shown) [compound 248, 5-(1-acetylazetidin-3-yl)-5-[3-[4-(3,4-difluorophenyl)piperazin-1-yl]-2-methyl-3-oxo-propyl]imidazolidine-2,4-dione]	7.31	< 5.42
C[C@H]1CN(C(=O)CCC2(C3CC3)NC(=O)NC2=O)CCN1c1ccc2c(cnn2C)c1 (stereo partly drawn) [compound 297, 5-cyclopropyl-5-[3-[(3S)-3-methyl-4-(1-methylindazol-5-yl)piperazin-1-yl]-3-oxo-propyl]imidazolidine-2,4-dione]	< 5.44	< 4.70
C[C@H]1CN(C(=O)CCC2(C3CC3)NC(=O)NC2=O)CCN1c1cncc(C#N)c1 (stereo partly drawn) [compound 330, 5-[(2S)-4-[3-(4-cyclopropyl-2,5-dioxo-imidazolidin-4-yl)propanoyl]-2-methyl-piperazin-1-yl]pyridine-3-carbonitrile]	< 5.40	< 4.70
CC(CC1(C2CC2)NC(=O)NC1=O)C(=O)N1CCN(c2ccc(F)cc2)[C@@H](C)C1 (stereo partly drawn) [compound 343, 5-cyclopropyl-5-[3-[(3S)-4-(4-fluorophenyl)-3-methyl-piperazin-1-yl]-2-methyl-3-oxo-propyl]imidazolidine-2,4-dione]	7.66	< 4.70
COCC(CC1(C)NC(=O)NC1=O)C(=O)N1CCN(c2cccc(F)c2)[C@@H](C)C1 (stereo partly drawn) [compound 292, 5-[3-[(3S)-4-(3-fluorophenyl)-3-methyl-piperazin-1-yl]-2-(methoxymethyl)-3-oxo-propyl]-5-methyl-imidazolidine-2,4-dione]	7.32	< 5.40
COCC1(CC(C)C(=O)N2CCN(c3cncc(Cl)c3)[C@@H](C)C2)NC(=O)NC1=O (stereo partly drawn) [compound 363, 5-[3-[(3S)-4-(5-chloro-3-pyridyl)-3-methyl-piperazin-1-yl]-2-methyl-3-oxo-propyl]-5-(methoxymethyl)imidazolidine-2,4-dione]	7.12	< 4.92
C[C@H]1CN(C(=O)CCC2(c3cn(C)cn3)NC(=O)NC2=O)CCN1c1cc(F)cc(F)c1 (stereo partly drawn) [compound 361, 5-[3-[(3S)-4-(3,5-difluorophenyl)-3-methyl-piperazin-1-yl]-3-oxo-propyl]-5-(1-methylimidazol-4-yl)imidazolidine-2,4-dione]	7.29	< 4.70
C[C@H]1CN(C(=O)CCC2(c3ncccn3)NC(=O)NC2=O)CCN1c1cc(F)cc(Cl)c1 (stereo partly drawn) [compound 463, 5-[3-[(3S)-4-(3-chloro-5-fluoro-phenyl)-3-methyl-piperazin-1-yl]-3-oxo-propyl]-5-pyrimidin-2-yl-imidazolidine-2,4-dione]	7.34	< 5.40
Cc1ccc(N2CCN(C(=O)CCC3(C4CC4)NC(=O)NC3=O)C[C@@H]2C)cc1F (stereo partly drawn) [compound 299, 5-cyclopropyl-5-[3-[(3S)-4-(3-fluoro-4-methyl-phenyl)-3-methyl-piperazin-1-yl]-3-oxo-propyl]imidazolidine-2,4-dione]	6.94	< 4.70
Cc1cccc(C2(CCC(=O)N3CCN(c4cccc(Cl)c4)[C@@H](C)C3)NC(=O)NC2=O)n1 (stereo partly drawn) [compound 311, 5-[3-[(3S)-4-(3-chlorophenyl)-3-methyl-piperazin-1-yl]-3-oxo-propyl]-5-(6-methyl-2-pyridyl)imidazolidine-2,4-dione]	7.24	5.51
C[C@H]1CN(C(=O)CCC2(C3CC3)NC(=O)NC2=O)CCN1c1cccnn1 (stereo partly drawn) [Cpd 302, 5-cyclopropyl-5-[3-(3S)-3-methyl-4-pyridazin-3-yl-piperazin-1-yl-3-oxo-propyl]imidazolidine-2,4-dione]	6.11	< 4.70
CC(CC1(CN2CCOCC2)NC(=O)NC1=O)C(=O)N1CCN(c2cc(Cl)cc(Cl)c2)[C@@H](C)C1 (stereo partly drawn) [compound 246, 5-[3-[(3S)-4-(3,5-dichlorophenyl)-3-methyl-piperazin-1-yl]-2-methyl-3-oxo-propyl]-5-(morpholinomethyl)imidazolidine-2,4-dione]	6.94	< 4.71
C[C@H]1CN(C(=O)CCC2(c3ccccn3)NC(=O)NC2=O)CCN1c1cccc(F)c1 (stereo partly drawn) [compound 345, 5-[3-[(3S)-4-(3-fluorophenyl)-3-methyl-piperazin-1-yl]-3-oxo-propyl]-5-(2-pyridyl)imidazolidine-2,4-dione]	7.30	< 5.40
C[C@H]1CN(C(=O)CCC2(c3cnccn3)NC(=O)NC2=O)CCN1c1ccc(Cl)c(Cl)c1 (stereo partly drawn) [compound 460, 5-[3-[(3S)-4-(3,4-dichlorophenyl)-3-methyl-piperazin-1-yl]-3-oxo-propyl]-5-pyrazin-2-yl-imidazolidine-2,4-dione]	7.52	< 5.40
CC1(CC(CC#N)C(=O)N2CCN(c3cc(Cl)cc(Cl)c3)CC2)NC(=O)NC1=O (stereo not shown) [compound 254, 4-[4-(3,5-dichlorophenyl)piperazin-1-yl]-3-[(4-methyl-2,5-dioxo-imidazolidin-4-yl)methyl]-4-oxo-butanenitrile]	7.15	6.00
C[C@H]1CN(C(=O)CCC2(C3CC3)NC(=O)NC2=O)CCN1c1cnc2ccccc2c1 (stereo partly drawn) [compound 289, 5-cyclopropyl-5-[3-[(3S)-3-methyl-4-(3-quinolyl)piperazin-1-yl]-3-oxo-propyl]imidazolidine-2,4-dione]	7.01	< 5.40
CC(CC1(C2CN(C(=O)OC(C)(C)C)C2)NC(=O)NC1=O)C(=O)N1CCN(c2ccc(F)c(F)c2)[C@@H](C)C1 (stereo partly drawn) [compound 239, tert-butyl 3-[4-[3-[(3S)-4-(3,4-difluorophenyl)-3-methyl-piperazin-1-yl]-2-methyl-3-oxo-propyl]-2,5-dioxo-imidazolidin-4-yl]azetidine-1-carboxylate]	7.34	< 5.40
C[C@@H](C[C@@]1(C2CC2)NC(=O)NC1=O)C(=O)N1CCN(c2ccc(F)c(-c3cn[nH]c3)c2)[C@@H](C)C1 [compound 378, 5-cyclopropyl-5-[3-[(3S)-4-[4-fluoro-3-(1H-pyrazol-4-yl)phenyl]-3-methyl-piperazin-1-yl]-2-methyl-3-oxo-propyl]imidazolidine-2,4-dione]	7.66	< 5.40
C[C@H]1CN(C(=O)CCC2(c3cccnc3)NC(=O)NC2=O)CCN1c1cc(Cl)cc(Cl)c1 (stereo partly drawn) [compound 318, 5-[3-[(3S)-4-(3,5-dichlorophenyl)-3-methyl-piperazin-1-yl]-3-oxo-propyl]-5-(3-pyridyl)imidazolidine-2,4-dione]	7.23	5.66
